# Earlier results in paper PMC5621377 (Clinical cancer research : an official journal of the …, 2016).
# Test system: Jeko-1 MCL xenograft
# Settings: doses comparable to those achievable in humans; cited from earlier work
structure (smiles),measurement,value
CN(C)C(=O)c1cc2cnc(Nc3ccc(N4CCNCC4)cn3)nc2n1C1CCCC1 [ribociclib],tumor response in xenograft,complete regressions
